Experimental data: patent US12605346B2, “Composition containing curcumin compound, and method for producing same” (THERABIOPHARMA INC., priority 2020, dated 2026)

What was measured:
[1] = Plasma curcumin concentration (AUC and Cmax) after administration to rats; format: in vivo
Description: The plasma curcumin concentration was measured by the following method using heparin plasma obtained by collecting about 0.2 mL of blood from the jugular vein of test animals (rats) without anesthesia at 0.25 hours, 0.5 hours, 1 hour, 2 hours, 4 hours, and/or 6 hours after start of administration.
To 20 μL of the collected plasma, 100 μL of 0.1 M acetate buffer (pH 5.0) and 10 μL of β-glucuronidase solution (about 68,000 units/mL) were added. The mixture was kept at 37° C. for 1 hour. Subsequently, 10 μL of 50% (v/v) methanol containing 20 ng/mL of Mepronil, an internal standard, and 0.5 mL of chloroform were added. The mixture was stirred with a vortex mixer for 1 minute and then mixed with an ultrasonic generator for 15 minutes to perform an extraction process. The extraction process liquid was separated into a chloroform layer and an aqueous layer by centrifugation (13,000×g, 5 min, room temperature). The separated aqueous layer was further subjected to an extraction process in which extraction was performed by adding chloroform in the same manner as described above. Next, the chloroform layer was collected and dried to solid by distilling the solvent off using a vacuum centrifugal concentrator, and 100 μL of 50% (v/v) methanol was added thereto, followed by centrifugation (13,000×g, 5 min, room temperature). The supernatant was then collected.
The plasma curcumin concentration was measured by analyzing 2 μL of the prepared supernatant using LC-MS/MS (available from Bruker). […]
The calibration curve used to quantitatively determine the curcumin content in the sample was obtained by performing measurement under the same conditions as described above using various standard solutions (curcumin concentration: 0.9 to 225 ng/mL) prepared by adding 10 μL of a 50% ethanol solution containing 20 ng/mL of Mepronil to 90 μL of a 50% (v/v) methanol solution (curcumin standard solution) containing 1.0, 2.0, 3.9, 7.8, 15.6, 31.3, 62.5, 125, or 250 ng/mL of curcumin.

[2] = normal conditions (temperature 20° C. to 35° C., humidity 40% to 70%) till 6 months; cited from earlier work

Compound | Cmax ([1]; rat, oral, plasma curcumin after β-glucuronidase treatment) [ng/mL] | AUC ([1]; rat, oral, plasma curcumin after β-glucuronidase treatment, 0 to 6 hrs) [ng·h/mL] | Cmax relative to Comparative Example 1 (value in parentheses) ([1]; ratio to commercial curcumin formulation (Comparative Example 1 = 1.0)) [times] | Storage stability of sample stored in a container [2]
COc1cc(/C=C/C(=O)/C=C(O)/C=C/c2ccc(O)c(OC)c2)ccc1O [Comparative Example 2, curcumin] | 85 | 292 | 0.84 | –
COc1cc(/C=C/C(=O)/C=C(O)/C=C/c2ccc(O)c(OC)c2)ccc1O [amorphous curcumin, curcumin] | – | – | – | generally stable
